Laboratory results published in PubChem BioAssay AID328 (DTP/NCI, 2004).
Toxic doses and inconclusive results are not listed. Non-standard residues stand in square brackets, D forms with d. Residues, ends and D or L forms follow the SMILES beside them. ξ: configuration not given here. *: point of attachment. Cbz = O=C(OCc1ccccc1)*; ξK = NCCCCC(N)C(=O)O

Tested on: BDF1 mice, P388 leukemia ip, median survival T/C
Test: NCI In Vivo Anticancer Drug Screen. Data for tumor model P388 Leukemia (intraperitoneal) in B6D2F1 (BDF1) mice
Conditions: endpoint: median survival time, higher = longer survival
Protocol: The antitumor activity of compounds was measured in mice bearing transplantable tumors. Survival or tumor size were measured and the results are expressed as the measurement made in the treated group (T) divided by the measurement made in the vehicle treated control group (C). The tumor model used in this assay is P388 Leukemia (intraperitoneal) in B6D2F1 (BDF1) mice

[1] = dose: 50.0 mg/kg/injection, schedule: Q04DX003 (ip), vehicle: Klucel (hydroxypropylcellulose) (HPC)
[2] = dose: 100.0 mg/kg/injection, schedule: Q04DX003 (ip), vehicle: Klucel (hydroxypropylcellulose) (HPC)
[3] = dose: 200.0 mg/kg/injection, schedule: Q04DX003 (ip), vehicle: Klucel (hydroxypropylcellulose) (HPC)
[4] = dose: 50.0 mg/kg/injection, schedule: Q01DX009 (ip), vehicle: saline with Tween-80
[5] = dose: 100.0 mg/kg/injection, schedule: Q01DX009 (ip), vehicle: saline with Tween-80
[6] = dose: 200.0 mg/kg/injection, schedule: Q01DX009 (ip), vehicle: saline with Tween-80
[7] = dose: 100.0 mg/kg/injection, schedule: Q01DX009 (ip), vehicle: saline
[8] = dose: 50.0 mg/kg/injection, schedule: Q01DX005 (ip), vehicle: saline with Tween-80
[9] = dose: 400.0 mg/kg/injection, schedule: Q01DX009 (ip), vehicle: saline with Tween-80
[10] = dose: 100.0 mg/kg/injection, schedule: Q04DX003 (ip), vehicle: saline with Tween-80
[11] = dose: 200.0 mg/kg/injection, schedule: Q04DX003 (ip), vehicle: saline with Tween-80
[12] = dose: 400.0 mg/kg/injection, schedule: Q04DX003 (ip), vehicle: saline with Tween-80

C=C(Cl)c1c(C)cc(C)c(CC#N)c1C
T/C (dose: 12.5 mg/kg/injection, schedule: Q04DX003 (ip), vehicle: DMSO): 100 % of control | T/C (dose: 25.0 mg/kg/injection, schedule: Q04DX003 (ip), vehicle: DMSO): 113 % of control | T/C (dose: 50.0 mg/kg/injection, schedule: Q04DX003 (ip), vehicle: DMSO): 100 % of control

CC12CCOC(=O)/C=C/C=C/C(=O)OC3CC4OC5C6OC6(C)CCC5(COC(=O)C1O2)C3(C)C41CO1 (configuration not stated)
T/C (dose: 2.5 mg/kg/injection, schedule: Q01DX009 (ip), vehicle: saline + alcohol): 154 % of control | T/C (dose: 10.0 mg/kg/injection, schedule: Q01DX009 (ip), vehicle: saline + alcohol): 157 % of control

C=CCNC(=S)Nc1cc(Cl)ccc1C
T/C [1]: 95 % of control | T/C [2]: 100 % of control | T/C [3]: 109 % of control

Cc1c(N2CCCCC2)[nH]c2ccccc12
T/C [1]: 100 % of control | T/C [2]: 100 % of control | T/C [3]: 95 % of control

CC(=O)Oc1ccc2c(c1)CCC1C2CCC2(C)C1CCC21CO1 (configuration not stated)
T/C [4]: 90 % of control | T/C [5]: 97 % of control | T/C [6]: 98 % of control

O=c1[nH]cnc2c1ncn2C1OC(CO)C(O)C1O (configuration not stated)
T/C [7]: 99 % of control | T/C (dose: 200.0 mg/kg/injection, schedule: Q01DX009 (ip), vehicle: saline): 100 % of control | T/C (dose: 400.0 mg/kg/injection, schedule: Q01DX009 (ip), vehicle: saline): 103 % of control

Nc1ncnc2nc[nH]c12.[Cl][Pt][Cl]
T/C (dose: 100.0 mg/kg/injection, schedule: Q01DX009 (ip), vehicle: water): 114 % of control | T/C (dose: 100.0 mg/kg/injection, schedule: Q04DX003 (ip), vehicle: water): 93 % of control | T/C (dose: 200.0 mg/kg/injection, schedule: Q01DX009 (ip), vehicle: water): 118 % of control | T/C (dose: 200.0 mg/kg/injection, schedule: Q04DX003 (ip), vehicle: water): 98 % of control | T/C (dose: 400.0 mg/kg/injection, schedule: Q01DX009 (ip), vehicle: water): 104 % of control | T/C (dose: 400.0 mg/kg/injection, schedule: Q04DX003 (ip), vehicle: water): 98 % of control

Cc1cc(Br)c2nsnc2c1[N+](=O)[O-]
T/C [8]: 118 % of control | T/C (dose: 400.0 mg/kg/injection, schedule: Q01DX005 (ip), vehicle: saline with Tween-80): 118 % of control

O=C(/C=C/c1ccc(Cl)cc1Cl)c1ccc(Cl)cc1
T/C [5]: 104 % of control | T/C [6]: 104 % of control | T/C [9]: 100 % of control

COc1ccccc1C(=O)c1ccccc1Cc1cccc2ccccc12
T/C [4]: 92 % of control | T/C [5]: 92 % of control | T/C [6]: 92 % of control | T/C [9]: 97 % of control

Cc1ccc(NC(=O)COc2ccc(Cl)cc2Cl)cc1Cl
T/C [10]: 100 % of control | T/C [11]: 90 % of control | T/C [12]: 90 % of control

O=c1nc(Oc2ccccc2)nc2ncccn12
T/C (dose: 12.5 mg/kg/injection, schedule: Q01DX009 (ip), vehicle: saline with Tween-80): 121 % of control

Cc1ccc(-c2nc3sccn3c2/C=N/NC(N)=S)cc1
T/C (dose: 100.0 mg/kg/injection, schedule: Q01DX001 (ip), vehicle: Klucel (hydroxypropylcellulose) (HPC)): 100 % of control | T/C (dose: 400.0 mg/kg/injection, schedule: Q01DX001 (ip), vehicle: Klucel (hydroxypropylcellulose) (HPC)): 95 % of control

COc1ccc(OC)c(NC=O)c1
T/C (dose: 25.0 mg/kg/injection, schedule: Q01DX009 (ip), vehicle: saline with Tween-80): 97 % of control | T/C [5]: 97 % of control

CCC[As](CCC)SC1OC(COC(C)=O)C(OC(C)=O)C(OC(C)=O)C1OC(C)=O (configuration not stated)
T/C (dose: 50.0 mg/kg/injection, schedule: Q01DX009 (ip), vehicle: saline + alcohol): 109 % of control

O=[N+]([O-])c1ccc(N=NNc2ccc(N=Nc3ccccc3)cc2)cc1
T/C (dose: 12.5 mg/kg/injection, schedule: Q01DX009 (ip), vehicle: Klucel (hydroxypropylcellulose) (HPC)): 109 % of control | T/C (dose: 25.0 mg/kg/injection, schedule: Q01DX009 (ip), vehicle: Klucel (hydroxypropylcellulose) (HPC)): 118 % of control | T/C (dose: 50.0 mg/kg/injection, schedule: Q01DX009 (ip), vehicle: Klucel (hydroxypropylcellulose) (HPC)): 95 % of control | T/C (dose: 75.0 mg/kg/injection, schedule: Q01DX009 (ip), vehicle: Klucel (hydroxypropylcellulose) (HPC)): 100 % of control | T/C (dose: 115.0 mg/kg/injection, schedule: Q01DX009 (ip), vehicle: Klucel (hydroxypropylcellulose) (HPC)): 95 % of control | T/C (dose: 170.0 mg/kg/injection, schedule: Q01DX009 (ip), vehicle: Klucel (hydroxypropylcellulose) (HPC)): 90 % of control

NCC(=O)NC(CCCCNC(=O)OCc1ccccc1)C(=O)O (configuration not stated) (H-Gly-[ξK](Cbz)-OH)
T/C (dose: 12.5 mg/kg/injection, schedule: Q01DX005 (ip), vehicle: saline with Tween-80): 106 % of control | T/C (dose: 25.0 mg/kg/injection, schedule: Q01DX005 (ip), vehicle: saline with Tween-80): 104 % of control

Cc1ccccc1N=C(N)N=C(N)N
T/C (dose: 50.0 mg/kg/injection, schedule: Q01DX009 (ip), vehicle: saline): 100 % of control | T/C [7]: 100 % of control

COc1cc2c3c(c1O)Oc1ccc(cc1)C[C@@H]1c4c(cc(OC)c(O)c4Oc4ccc(cc4)C[C@H]3N(C)CC2)CCN1C
T/C (dose: 40.0 mg/kg/injection, schedule: Q01DX010 (ip), vehicle: saline): 95 % of control | T/C (dose: 80.0 mg/kg/injection, schedule: Q01DX010 (ip), vehicle: saline): 100 % of control | T/C (dose: 160.0 mg/kg/injection, schedule: Q01DX010 (ip), vehicle: saline): 105 % of control | T/C (dose: 320.0 mg/kg/injection, schedule: Q01DX010 (ip), vehicle: saline): 90 % of control

CCNC(=S)N/N=C/c1ccc[nH]1
T/C (dose: 15.0 mg/kg/injection, schedule: Q01DX009 (ip), vehicle: saline with Tween-80): 104 % of control | T/C (dose: 30.0 mg/kg/injection, schedule: Q01DX009 (ip), vehicle: saline with Tween-80): 88 % of control | T/C (dose: 60.0 mg/kg/injection, schedule: Q01DX009 (ip), vehicle: saline with Tween-80): 101 % of control

CC(=O)OCc1cc2ccccc2nc1C
T/C [10]: 100 % of control | T/C [6]: 95 % of control | T/C [11]: 104 % of control | T/C [9]: 95 % of control | T/C [12]: 100 % of control

CCOC(=O)CCN(CCCN(C)C)c1cc(O)c2c(c1O)C(=O)c1ccccc1C2=O
T/C [8]: 89 % of control | T/C (dose: 100.0 mg/kg/injection, schedule: Q01DX005 (ip), vehicle: saline with Tween-80): 103 % of control | T/C (dose: 200.0 mg/kg/injection, schedule: Q01DX005 (ip), vehicle: saline with Tween-80): 108 % of control

OCC1(O)CC(O)C(O)(CO)CC1O (configuration not stated)
T/C (dose: 50.0 mg/kg/injection, schedule: Q01DX009 (ip), vehicle: other): 104 % of control | T/C (dose: 50.0 mg/kg/injection, schedule: Q04DX003 (ip), vehicle: saline): 104 % of control | T/C (dose: 100.0 mg/kg/injection, schedule: Q01DX009 (ip), vehicle: other): 95 % of control | T/C (dose: 100.0 mg/kg/injection, schedule: Q04DX003 (ip), vehicle: saline): 116 % of control | T/C (dose: 200.0 mg/kg/injection, schedule: Q01DX009 (ip), vehicle: other): 118 % of control | T/C (dose: 200.0 mg/kg/injection, schedule: Q04DX003 (ip), vehicle: saline): 95 % of control

N#CC(C#N)=C(C#N)C#N
T/C (dose: 0.78 mg/kg/injection, schedule: Q01DX009 (ip), vehicle: Klucel (hydroxypropylcellulose) (HPC)): 90 % of control | T/C (dose: 1.56 mg/kg/injection, schedule: Q01DX009 (ip), vehicle: Klucel (hydroxypropylcellulose) (HPC)): 100 % of control | T/C (dose: 1.56 mg/kg/injection, schedule: Q04DX003 (ip), vehicle: Klucel (hydroxypropylcellulose) (HPC)): 100 % of control | T/C (dose: 3.13 mg/kg/injection, schedule: Q01DX009 (ip), vehicle: Klucel (hydroxypropylcellulose) (HPC)): 100 % of control | T/C (dose: 3.13 mg/kg/injection, schedule: Q04DX003 (ip), vehicle: Klucel (hydroxypropylcellulose) (HPC)): 100 % of control
